Each structure is given as a SMILES string. Several values for one entry are separate records, joined by “and”; a condition that tells them apart may be missing. Identical values can stand only once. Bounds are passed on as bounds.

The target of this assay is SARS-CoV-2 Mpro (Severe acute respiratory syndrome coronavirus 2, UniProt P0DTD1). The assay is described as follows: biochemical. The following applies: for inhibition at 20 µM: read-out: % inhibition at 20 μM; for IC50: IC50, enzyme 100 nM, substrate 20 μM, 10 min preincubation, pH 6.5; for fold less active than the other (more active) diastereomer: between the two diastereomers of the same compound.

Usually inhibition stands for the change of the read-out against control, counted positive when it falls. As for `CC(C)(C)NC(=O)C(c1cccnc1)N(C(=O)c1ccco1)c1ccc(CC2CO2)cc1` (stereo not drawn) [Compound 4, N-(2-(tert-Butylamino)-2-oxo-1-(pyridin-3-yl)ethyl)-N-(4-(oxiran-2-ylmethyl)phenyl)furan-2-carboxamide], the inhibition at 20 µM came to 10%. In general, IC50 refers to the concentration at which inhibition is half-maximal. Compound `O=C(NCc1ccccc1)C(c1cccnc1)N(C(=O)c1ccco1)c1ccc(-c2ccccc2)cc1` (stereo not drawn) [Compound 1, N-([1,1’-Biphenyl]-4-yl)-N-(2-(benzylamino)-2-oxo-1-(pyridin-3-yl)ethyl)furan-2-carboxamide] came in with an IC50 of 740 ± 70 nM. In the case of `O=C(NCc1ccccc1)C(c1cccnc1)N(C(=O)c1ccco1)c1ccc(C2CO2)cc1` (stereo not drawn) [Compound 2, N-(2-(Benzylamino)-2-oxo-1-(pyridin-3-yl)ethyl)-N-(4-(oxiran-2-yl)phenyl)furan-2-carboxamide], the inhibition at 20 µM was 18%.

In the case of `O=C(Nc1cccc(N(C(=O)c2ccco2)C(C(=O)NCc2ccccc2)c2cccnc2)c1)C(Cl)Cl` (stereo not drawn) [Compound 9, N-(2-(Benzylamino)-2-oxo-1-(pyridin-3-yl)ethyl)-N-(3-(2,2-dichloroacetamido)phenyl)furan-2-carboxamide], the inhibition at 20 µM turned out to be 20%. On to `COc1ccc(N(C(=O)CCl)C(C(=O)NC(C)(C)C)c2cccnc2)cc1` (stereo not drawn) [Compound 22, N-(tert-Butyl)-2-(2-chloro-N-(4-methoxyphenyl)acetamido)-2-(pyridin-3-yl)acetamide], for which the IC50 was 1600 nM and 1610 nM. On to `Nc1ccc(N(C(=O)c2ccco2)C(C(=O)NCc2ccccc2)c2cccnc2)cc1` (stereo not drawn) [Compound 11, N-(4-Aminophenyl)-N-(2-(benzylamino)-2-oxo-1-(pyridin-3-yl)ethyl)furan-2-carboxamide], for which the inhibition at 20 µM turned out to be 0%. Consider `CC(C)(C)c1ccc(N(C(=O)C2CO2)C(C(=O)NC2CCCCC2)c2cccnc2)cc1` [(R, R)- and (S, S)-30, N-(4-(tert-Butyl)phenyl)-N-(2-(cyclohexylamino)-2-oxo-1-(pyridin-3-yl)ethyl)oxirane-2-carboxamide], for which the IC50 turned out to be 9900 ± 1600 nM and the “fold less active than the other (more active) diastereomer” value is recorded as 13 ×. For `CCCCNC(=O)C(c1cccnc1)N(C(=O)CCl)c1ccc(C(C)(C)C)cc1` (stereo not drawn) [Compound 24, N-Butyl-2-(N-(4-(tert-butyl)phenyl)-2-chloroacetamido)-2-(pyridin-3-yl)acetamide], the IC50 stood at 2400 ± 300 nM. The same measure, in the same setting: for `CC(C)(C)NC(=O)C(c1cccnc1)N(C(=O)C1CO1)c1ccc(C(C)(C)C)cc1` [(R, S)- and (S, R)-38, N-(4-(tert-Butyl)phenyl)-N-(2-(tert-butylamino)-2-oxo-1-(pyridin-3-yl)ethyl)oxirane-2-carboxamide] the value was 1200 nM and 1240 nM.

With `CC1OC1C(=O)N(c1ccc(C(C)(C)C)cc1)C(C(=O)NC1CCCCC1)c1cccnc1` [(R, R, S)- and (S, S, R)-35, N-(4-(tert-Butyl)phenyl)-N-(2-(cyclohexylamino)-2-oxo-1-(pyridin-3-yl)ethyl)-3-methyloxirane-2-carboxamide], the “fold less active than the other (more active) diastereomer” value was ~ 10 × and the inhibition at 20 µM was determined as 42%. For `O=C(CCl)Nc1ccc(N(C(=O)c2ccco2)C(C(=O)NCc2ccccc2)c2cccnc2)cc1` (stereo not drawn) [Compound 5, N-(2-(Benzylamino)-2-oxo-1-(pyridin-3-yl)ethyl)-N-(4-(2-chloroacetamido)phenyl)furan-2-carboxamide], the IC50 is roughly 20000 nM and the inhibition at 20 µM stood at 47%. On to `CC(C)(C)NC(=O)C(c1cccnc1)N(C(=O)CCl)c1ccc(-c2ccccc2)cc1` (stereo not drawn) [Compound 14, N-([1,1’-Biphenyl]-4-yl)-N-(2-(tert-butylamino)-2-oxo-1-(pyridin-3-yl)ethyl)-2-chloroacetamide], for which half-maximal inhibition (IC50) was put at 950 ± 40 nM.

Turning to `O=C(CCl)Nc1cccc(N(C(=O)c2ccco2)C(C(=O)NCc2ccccc2)c2cccnc2)c1` (stereo not drawn) [Compound 8, N-(2-(Benzylamino)-2-oxo-1-(pyridin-3-yl)ethyl)-N-(3-(2-chloroacetamido)phenyl)furan-2-carboxamide], the IC50 is roughly 20000 nM and the inhibition at 20 µM came out at 47%. With `CC(C)(C)NC(=O)C(c1cccnc1)N(C(=O)C(=O)Cc1ccccc1)c1ccc(C(C)(C)C)cc1` (stereo not drawn) [Compound 31, N-(4-(tert-Butyl)phenyl)-N-(2-(tert-butylamino)-2-oxo-1-(pyridin-3-yl)ethyl)-2-oxo-3-phenylpropanamide], the “inhibitory activity against Mpro (in words)” value is “inactive” and the inhibition at 20 µM stood at 0%. Compound `CC(C)(C)NC(=O)C(c1cccnc1)N(C(=O)CCl)c1ccc(NC(=O)C(Cl)Cl)cc1` (stereo not drawn) [Compound 16, N-(tert-Butyl)-2-(2-chloro-N-(4-(2,2-dichloroacetamido)phenyl)acetamido)-2-(pyridin-3-yl)acetamide] showed an IC50 of 3600 ± 190 nM. Also, the “fold less active than compound 13” value (IC50 compared with compound 13) was ~ 5 ×. For `CC(C)(C)NC(=O)C(c1cccnc1)N(C(=O)C1OC1(C)C)c1ccc(C(C)(C)C)cc1` (stereo not drawn) [Compound 40, N-(4-(tert-Butyl)phenyl)-N-(2-(tert-butylamino)-2-oxo-1-(pyridin-3-yl)ethyl)-3,3-dimethyloxirane-2-carboxamide], the inhibition at 20 µM is 31%. On the same count and under the same terms, for `CC(C)(C)NC(=O)C(c1cccnc1)N(C(=O)CCl)c1ccc(N)cc1` (stereo not drawn) [Compound 20, N-(4-Aminophenyl)-N-(2-(tert-butylamino)-2-oxo-1-(pyridin-3-yl)ethyl)-2-chloroacetamide] the value was 12%. `CC1OC1C(=O)N(c1ccc(C(C)(C)C)cc1)C(C(=O)NC(C)(C)C)c1cccnc1` [(R, R, S)- and (S, S, R)-39, N-(4-(tert-Butyl)phenyl)-N-(2-(tert-butylamino)-2-oxo-1-(pyridin-3-yl)ethyl)-3-methyloxirane-2-carboxamide] showed an IC50 of 5320 ± 640 nM. In the case of `CC(C)(C)c1ccc(N(C(=O)C2CO2)C(C(=O)NCc2ccccc2)c2cccnc2)cc1` [(R, R)- and (S, S)-42, N-(2-(Benzylamino)-2-oxo-1-(pyridin-3-yl)ethyl)-N-(4-(tert-butyl)phenyl)oxirane-2-carboxamide], the inhibition at 20 µM is 45%.

For the compound `CC(=O)OCC(=O)N(c1ccc(C(C)(C)C)cc1)C(C(=O)NC(C)(C)C)c1cccnc1` (stereo not drawn) [Compound 33, 2-((4-(tert-Butyl)phenyl)(2-(tert-butylamino)-2-oxo-1-(pyridin-3-yl)ethyl)amino)-2-oxoethyl acetate], the inhibition at 20 µM was 0%. With `CC1(C(=O)N(c2ccc(C(C)(C)C)cc2)C(C(=O)NC2CCCCC2)c2cccnc2)CO1` (stereo not drawn) [Compound 37, N-(4-(tert-Butyl)phenyl)-N-(2-(cyclohexylamino)-2-oxo-1-(pyridin-3-yl)ethyl)-2-methyloxirane-2-carboxamide], the inhibition at 20 µM came out at 28%. Also, the “activity reduction vs. compound 30” value (compared with more active diastereomer of 30) was greater than 25 fold. Take `CC(C)(C)NC(=O)C(c1cccnc1)N(C(=O)C1CO1)c1ccc(C(C)(C)C)cc1` [(R, R)- and (S, S)-38, N-(4-(tert-Butyl)phenyl)-N-(2-(tert-butylamino)-2-oxo-1-(pyridin-3-yl)ethyl)oxirane-2-carboxamide]: the inhibition at 20 µM was 21%. `CC(C)(C)NC(=O)C(c1cccnc1)N(C(=O)CCl)c1cccc(NC(=O)C(Cl)Cl)c1` (stereo not drawn) [Compound 19, N-(tert-Butyl)-2-(2-chloro-N-(3-(2,2-dichloroacetamido)phenyl)acetamido)-2-(pyridin-3-yl)acetamide] came in with an IC50 of 2200 ± 510 nM.

Values taken from PMC10922772 (ACS infectious diseases, 2024).
